Measured values taken from ChEMBL document CHEMBL1201862, “PubChem BioAssay data set” (2004).
Activity calls are given as the source filed them.

How the values were obtained:
[1] = target: Cytochrome P450 3A4 (Homo sapiens, UniProt P08684);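 further: CYP3A4 tested as one member of a cytochrome P450 panel screen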
[2] = NIH3T3 cell viability loss – ATP luminescence, mouse fibroblasts, counter-screen, dose response (AID 2010); format: functional, cell-based;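 further: cells exposed to compound for about 90 hours before reading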
[3] = Trypanosoma cruzi growth suppression in host cells – NIH3T3 host cells, beta-gal luminescence, confirmation (AID 2044); format: functional, cell-based;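 further: intracellular parasites grown in NIH/3T3 mouse fibroblasts as host cells; luminescent beta-galactosidase reporter signal from transgenic T. cruzi replicating inside host cells; inhibitors lower the luminescence signal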
[4] = target: Cytochrome P450 2C19 (Homo sapiens, UniProt P33261); test: Cytochrome panel assay with activity outcomes. Panel member name: p450-cyp2c19 Compounds with AC50 equal or less than 10 uM are considered active; format: functional; details: read-out: AC50
Chain of Cytochrome P450 2C19 (P33261 whole entry): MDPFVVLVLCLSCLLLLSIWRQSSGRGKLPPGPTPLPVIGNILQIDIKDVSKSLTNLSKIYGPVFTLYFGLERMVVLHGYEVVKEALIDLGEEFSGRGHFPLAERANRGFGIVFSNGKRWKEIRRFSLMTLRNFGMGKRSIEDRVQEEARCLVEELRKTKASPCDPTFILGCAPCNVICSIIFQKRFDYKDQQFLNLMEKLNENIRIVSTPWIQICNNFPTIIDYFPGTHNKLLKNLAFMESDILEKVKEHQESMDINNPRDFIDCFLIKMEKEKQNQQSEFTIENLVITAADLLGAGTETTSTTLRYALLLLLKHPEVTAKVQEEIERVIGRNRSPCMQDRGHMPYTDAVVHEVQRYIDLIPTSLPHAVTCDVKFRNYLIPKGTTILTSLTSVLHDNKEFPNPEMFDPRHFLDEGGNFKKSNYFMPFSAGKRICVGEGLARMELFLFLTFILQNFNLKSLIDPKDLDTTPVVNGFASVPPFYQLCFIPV

[5] = tested on: Streptococcus; test: GAS UMAA2166 growth inhibition – luminescence, BacTiterGlo, counter-screen for streptokinase expression inhibitor project, dose response (AID 1915); format: functional, organism-based;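 further: potency for reduction of bacterial viability or growth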
[6] = tested on: Streptococcus sp. 'group A'; test: Streptococcus pyogenes SK(-)GAS viability under kanamycin – luminescence, BacTiterGlo, confirmation, counter-screen for streptokinase expression inhibitor project, dose response (AID 1900); format: functional, organism-based

Chain of Cytochrome P450 3A4 (P08684 whole entry): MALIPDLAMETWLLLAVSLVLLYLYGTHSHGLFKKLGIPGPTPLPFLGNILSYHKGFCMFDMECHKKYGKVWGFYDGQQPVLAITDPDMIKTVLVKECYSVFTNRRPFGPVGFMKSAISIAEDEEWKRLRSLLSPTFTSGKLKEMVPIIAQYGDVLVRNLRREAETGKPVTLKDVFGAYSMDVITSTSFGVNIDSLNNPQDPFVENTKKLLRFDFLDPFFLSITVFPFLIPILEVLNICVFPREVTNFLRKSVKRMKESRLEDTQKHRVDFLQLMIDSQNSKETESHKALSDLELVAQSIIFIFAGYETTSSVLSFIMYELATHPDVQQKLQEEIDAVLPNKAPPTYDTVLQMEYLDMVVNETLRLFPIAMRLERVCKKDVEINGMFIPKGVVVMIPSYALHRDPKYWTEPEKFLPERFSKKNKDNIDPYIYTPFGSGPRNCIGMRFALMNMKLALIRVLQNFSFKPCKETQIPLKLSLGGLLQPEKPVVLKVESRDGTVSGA

| AC50 [1] | Structure (SMILES) | EC50 [2] | EC50 [3] | other results |
| --- | --- | --- | --- | --- |
| 14.1 µM (inconclusive) | COc1cc(/C=C(/NC(=O)c2ccccc2Cl)C(=O)O)cc(OC)c1OC | – | – | – |
| – | CN1CCN(CCOc2ccc(Cc3ccccc3)cc2)CC1 | > 60 µM (not active) | 0.378 µM (active) | – |
| – | CC(C)Oc1c(Br)cc(Br)cc1/C=N/NC(N)=S | > 30 µM (not active) | 1.35 µM (active) | – |
| – | O=C(Nc1cccc(F)c1)Nc1ccccn1 | – | – | AC50 [4]: 17.8 µM (inconclusive) |
| 20 µM (inconclusive) | CCOC(=O)C(C)Sc1ncc(OC)c(Sc2ccc(Cl)cc2)n1 (stereo not drawn) | – | – | – |
| 15.8 µM (inconclusive) | Cc1ccc(C)n1N1C(=O)/C(=C\c2ccc(Cl)cc2)SC1=S | – | – | – |
| 15.8 µM (inconclusive) | O=C(Nc1ccccc1)N1CC[C@@]2(CCCN(C(=O)c3cnccn3)C2)C1 | – | – | – |
| – | C/C(=N\NC(N)=S)C1=CCC2C3CC[C@H]4CC(O)CC[C@]4(C)C3CC[C@]12C (stereo partly drawn) | 9.97 µM (active) | 0.159 µM (active) | – |
| – | COc1ccc2ccccc2c1CNC(C)CCc1ccccc1 (stereo not drawn) | > 60 µM (not active) | 2.94 µM (active) | – |
| 39.8 µM (inconclusive) | Cc1ccccc1-c1nc(-c2ccc(NC(=O)c3cccs3)cc2)no1 | – | – | – |
| – | O=C(Nc1cccc(F)c1)N1CC[C@@]2(CCCN(C(=O)c3cc(C(F)(F)F)cc(C(F)(F)F)c3)C2)C1 | – | – | AC50 [4]: 25.1 µM (inconclusive) |
| 20 µM (inconclusive) | COc1ccccc1CN1CC[C@@]2(CCCN(S(C)(=O)=O)C2)C1 | – | – | – |
| – | COc1ccc(-n2cc(CN(C)C(C)c3ccncn3)c(-c3cccc(F)c3)n2)cc1 (stereo not drawn) | > 60 µM (not active) | 2.99 µM (active) | – |
| – | CN(C)CCn1c(=O)n(Cc2ccccc2)c(=O)c2c3c(sc21)CCCCC3 | > 60 µM (not active) | 0.505 µM (active) | – |
| – | O=C(Nc1cccc(F)c1)N1CCCC2(CCN(C(=O)c3cnccn3)CC2)C1 | – | – | AC50 [4]: 20 µM (inconclusive) |
| – | COc1cc(Cl)cc(/C=C/c2ccc3cccc(O)c3n2)c1OC | – | – | EC50 [5]: 1.85 µM (active); EC50 [6]: 0.851 µM (active) |

| AC50 [1] | Structure (SMILES) | EC50 [2] | EC50 [3] | other results |
| --- | --- | --- | --- | --- |
| – | Cc1cc(C)c2nc(N(CCCN(C)C)C(=O)c3ccc(S(=O)(=O)N4CC(C)OC(C)C4)cc3)sc2c1 (stereo not drawn) | > 30 µM (not active) | 0.297 µM (active) | – |
| 14.1 µM (inconclusive) | CCOc1cc(/C=N/n2cnnc2)c(Br)cc1O | – | – | – |
| – | CCCCn1c(-c2cccc3ccccc23)nc2cc3nc(O)c(C(C)C)nc3cc21 | > 60 µM (not active) | 1.08 µM (active) | – |
| – | Cc1cc(S(=O)(=O)Nc2ccc(C(=O)NCC(c3ccco3)N3CCCC3)cc2)ccc1F (stereo not drawn) | > 60 µM (not active) | 0.578 µM (active) | – |
| – | COc1cccc(Cn2c(=O)c(C)nc3cnc(N4CCN(C)CC4)nc32)c1 | – | – | AC50 [4]: 39.8 µM (inconclusive) |
| – | CSc1nc(C)c2c(n1)N(c1ccc(C(F)(F)F)cc1)CC2 | – | – | AC50 [4]: 11.2 µM (inconclusive) |
| – | Brc1ccc(-c2ccc(/C=N/Nc3nc4ccccc4[nH]3)o2)cc1 | > 60 µM (not active) | 1.03 µM (active) | – |
| – | Cc1ccc(/C=C/c2ccc(=O)n(Cc3ccc(Cl)cc3Cl)n2)cc1 | – | – | AC50 [4]: 4.47 µM (inconclusive) |
| 20 µM (inconclusive) | Cn1c(=O)c(-c2ccc(Cl)cc2)nc2cnc(N3CCNCC3)nc21 | – | – | – |
| – | COc1ccc(C(=O)N2CCC3(CCCN(C(=O)Nc4cccc(F)c4)C3)CC2)cc1 | – | – | AC50 [4]: 39.8 µM (inconclusive) |
| 28.2 µM (inconclusive) | O=C(O)CN1CCN(Cc2ccccc2Cl)C1=O | – | – | – |
| – | COc1cc(CNCCc2ccccc2)ccc1OCC(=O)NC(C)(C)C | – | – | AC50 [4]: 28.2 µM (inconclusive) |
| – | CC(C)(C)c1ccc(-c2nc3c(C#N)c(-c4ccc5c(c4)OCO5)ccn3n2)cc1 | > 60 µM (not active) | 1.46 µM (active) | – |
| – | CCOC(=O)c1c(N=C(S)N2CCN(C)CC2)sc(C)c1-c1ccccc1 | > 30 µM (not active) | 0.467 µM (active) | EC50 [5]: > 150 µM (not active); EC50 [6]: 6.75 µM (active) |
| – | Cc1ccc(-c2cn(S(=O)(=O)c3cccc([N+](=O)[O-])c3)nc2N)cc1 | > 30 µM (not active) | 1.03 µM (active) | – |
| 22.4 µM (inconclusive) | CCN1CCCC1Cn1cnc2c3cc(C)ccc3nc-2c1O (stereo not drawn) | – | – | – |
